Test [1] deals with T1, 5-HT receptors (the putative 5-HT2B) in rat stomach fundus longitudinal muscle (Rattus norvegicus, UniProt P30994).
T1 construct: Strips of longitudinal muscle were obtained from the stomach fundus of male Sprague Dawley rats; from tissue; host or cells: rat stomach fundus longitudinal muscle strips
As to the kind of experiment: 5-HT2B receptor tissue based functional assay in rat stomach fundus longitudinal muscle. Format: biochemical. To be noted: dextral shift of 5-HT agonist concentration-response curve, rat stomach fundus strips; result in words only. The protocol: 5-HT2B Receptor Tissue Based Functional Assay
The following describes an in vitro functional assay characterizing 5-HT receptors (the putative 5-HT2B) in rat stomach fundus longitudinal muscle (Baxter et al., Brit. J. Pharmacol. 1994, 112, 323-331).
Strips of longitudinal muscle were obtained from the stomach fundus of male Sprague Dawley rats. The mucosa was removed and the strips were suspended with a resting tension of 1 g in oxygenated (95% O2/5% CO2) Tyrode solution at 37° C. The composition of the Tyrode solution was as follows (mM): NaCl 136.9; KCl 2.7; NaH2PO4 0.4; MgCl2 1.0; glucose 5.6; NaHCO3 11.9; CaCl2 1.8. […]
Effects of drugs were monitored by tension transducers and recorded on polygraph recorders. Tissue response was measured as changes in isometric tension (g). The mean potency (EC50) and maximum response were evaluated by standard iterative curve fitting procedures.
Effects of antagonists were determined by measuring dextral shifts to the agonist concentration-response curve after equilibration of the antagonists for at least 1 h. Concentration ratios were measured at half maximal response levels and single concentration antagonist affinities were determined by the equation: [formula]

Test [2] deals with T2, human 5-HT2B receptor (Homo sapiens, UniProt P41595). The experiment in a line: 5-HT2A/5-HT2B/5-HT2C receptor binding methods (counter screen for selectivity). To be noted: human 5-HT2B in HEK293, [3H]-5HT approx. 0.4 nM, 120 min at 4° C.; result in words only. Also on record: expressed in transfected cells; host or cells: HEK293. The protocol:
5-HT2A 5-HT2B 5-HT2C Receptor Binding Methods
5-HT2A receptors were labelled with [^3H]ketanserin in human cortex, in HEK293 cells expressing a cloned human 5-HT2A receptor and in HEK293 cells expressing the rat 5-HT2A receptor. For competition binding studies the ligand concentration was approximately 0.1 nM. For saturation binding studies concentrations of radioligand ranged from 0.01 nM to 2.0 nM. Assays were conducted in 0.5 ml of assay buffer (50 mM Tris-HCl, 4 mM calcium chloride, 0.1% by weight ascorbic acid) (pH 7.4 at 4° C.). Non-specifc binding was defined with […] unlabelled ketanserin. After a 60 min incubation at 32° C., membranes were harvested onto filters treated with 0.1% by weight of polyethylenimine and the bound radioactivity was determined.
Human 5-HT2B receptors were labelled in HEK293 cells as described above. except that the radioligand was [^3H]-5HT and that the assay buffer contained pargyline in a concentration of 10 mM and 0.1% by weight of ascorbic acid. […]
Competition radioligand binding data was analyzed using a four parameter logistic equation and iterative curve-fitting techniques to obtain estimates of the IC50 and Hill slope. Kd values, determined from saturation binding studies were then used to calculate inhibition dissociation constants (Ki).

Test [3] addresses T3, human H1 receptor (Homo sapiens, UniProt P35367).
T3 construct: expressed in transfected cells; host or cells: HEK-293 (transient transfection; whole cells)
The experiment in a line: Human histamine H1 receptor functional assay ([3H]-inositol phosphate formation in transfected HEK-293 cells). Format: cell-based. To be noted: histamine-stimulated [3H]-inositol phosphate formation, result in words only. As for the experimental part: Human Histamine H1 Receptor Functional Assay
For the measurement of the [^3H]-inositol phosphate formation transiently transfected HEK-293 cells were seeded in 24 well plates and labeled to equilibrium with myo-[2-^3H]-inositol (3 iCi/ml) for an additional 24 hours in growth medium. The medium was aspirated and cells were washed once with 500 μl HBS-buffer (130 mM NaCl, 900 μM NaH2PO4, 800 μM MgSO4, 5.4 mM KCl, 1.8 mM CaCl2, 25 mM Glucose in 20 mM HEPES pH 7.4). Two min after applying 20 mM Li^+ the cells were stimulated by addition of histamine in HBS-buffer. The incubation was stopped by aspiration off the culture medium and the addition of cold 10 mM formic acid. [^3H]inositol phosphates were isolated by anion exchange chromatography (see Seuwen et al., 1988, EMBO J., 7, 161-168). The pKB value was calculated according to the formula: pKB=log (A′/A−1)−log [B], where A′/A is the ratio of the agonist concentrations (EC50 in the presence/EC50 in the absence of antagonist) and [B] the concentration of antagonist.

The target in test [4] is T4, human Histamine H1 receptor (Homo sapiens, UniProt P35367).
T4 construct: expressed in transfected cells; host or cells: COS-7 (transient transfection; cell homogenates)
As to the kind of experiment: Cloned human H1, H2 and H3 receptor binding assay ([3H]-mepyramine, transfected COS-7 cell homogenates). The conditions noted are these: displacement of 1 nM [3H]-mepyramine, COS-7 homogenates; result in words only. The protocol: Cloned Human H1, H2, and H3 Receptor Binding Assay
COS-7 cells were transiently transfected with an expression plasmid pCineohH1, pCineohH2, pCineohH3 and pCineohH4 encoding the human Histamine H1, H2, H3 or H4 receptor, respectively. Transfected cells were harvested after 48 h, homogenized in ice-cold 50 mM Na2/potassium phosphate buffer (pH 7.4) and used for radioligand binding studies. Cell homogenates (40-50 μg of protein) were incubated for 30 min at 25° C. in 50 mM Na2/potassium phosphate buffer (pH 7.4) in 400 μl with the various concentrations of either [^3H]-mepyramine, [^3H]-thiotidine, [^3H]-R-α-Methylhistamine, and [^3H]-pyramilamine for cells expressing recombinant human H1, H2, H3 and H4 receptors, respectively. The nonspecific binding was defined in the presence of 1 μM mianserin. In displacement studies, cell homogenated were incubated either with 1 nM [^3H]-mepyramine, 15 nM [^3H]-thiotidine, 0.5 nM [^3H]-R-α-Methylhistamine, or 15 nM [^3H]-pyramilamine and increasing concentrations of competing ligands. […] The bound radioactivity was seperated by filatration through Whatman GF/C filters that had been treated with 0.3% polyethyleneimine. Filters were washed twice in 3 ml of buffer and radioactivity retained on the filters was measured by liquid scinitllation counting. […]

The target of test [5] is T2, human 5-HT2B receptor. As to the kind of experiment: Cloned human 5-HT2B receptor binding assay ([3H]-5HT, transfected HEK 293 cell membranes). Details: expressed in transfected cells; host or cells: HEK 293 (transient transfection; membranes). The conditions noted are these: [3H]5-HT 4 to 5 nM, 37° C. 30 min, result in words only. The protocol:
Cloned Human 5-HT2B Receptor Binding Assay
The following describes an in vitro binding assay utilizing cloned 5-HT2B receptors radiolabelled with [^3H]-5HT.
HEK 293 cells transiently transfected with an expression plasmid pXMD1-hu2B encoding the human 5-HT2B receptor (see Schmuck et al., FEBS Lett., 1994, 342, 85-90) were used as described previously (Schmuck et al., Eur. J. Pharmacol., 1996, 8, 959-967). Two days after transfection cells were harvested, pelleted at 500 g for 5 min at 4° C., gently resuspended in ice-cold buffer1 (50 mM TRIS pH 7.7, 4 mM CaCl2) and homogenized using a Polytron PT 1200 tissue homogenizer (position 6 for 30 s). Cells were pelleted at 50,000 g, 4° C. for 10 min, washed with buffer1 and pelleted again. The final pellet was resuspended in incubation buffer (50 mM TRIS pH 7.7, 4 mM CaCl2, 10 μM pargyline and 0.1% by weight ascorbic acid). The binding assay consisted of 300 μl of membrane suspension (protein concentration =0.3 to 0.5 mg/ml), 150 μl of competing drug and 50 μl of [^3H]5-HT at a final concentration of 4 to 5 nM. […] Filters were counted by liquid scintillation. Non-specific binding was determined in the presence of an excess of 5-HT ([…]). […] Results are expressed as pK1 values. […]

T2 sequence (P41595 whole entry): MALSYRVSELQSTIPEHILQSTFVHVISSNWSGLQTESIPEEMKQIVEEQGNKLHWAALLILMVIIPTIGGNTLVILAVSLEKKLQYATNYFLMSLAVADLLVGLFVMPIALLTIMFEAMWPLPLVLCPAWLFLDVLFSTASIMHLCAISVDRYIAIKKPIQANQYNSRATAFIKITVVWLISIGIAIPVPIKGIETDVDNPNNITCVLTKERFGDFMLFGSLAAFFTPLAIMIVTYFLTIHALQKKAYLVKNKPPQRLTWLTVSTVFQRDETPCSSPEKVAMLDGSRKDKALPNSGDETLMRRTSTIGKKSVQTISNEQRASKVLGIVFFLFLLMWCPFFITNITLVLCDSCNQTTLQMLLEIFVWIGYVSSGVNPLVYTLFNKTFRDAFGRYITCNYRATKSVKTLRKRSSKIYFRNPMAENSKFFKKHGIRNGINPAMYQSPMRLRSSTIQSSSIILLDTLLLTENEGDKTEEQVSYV
T1 sequence (P30994 whole entry): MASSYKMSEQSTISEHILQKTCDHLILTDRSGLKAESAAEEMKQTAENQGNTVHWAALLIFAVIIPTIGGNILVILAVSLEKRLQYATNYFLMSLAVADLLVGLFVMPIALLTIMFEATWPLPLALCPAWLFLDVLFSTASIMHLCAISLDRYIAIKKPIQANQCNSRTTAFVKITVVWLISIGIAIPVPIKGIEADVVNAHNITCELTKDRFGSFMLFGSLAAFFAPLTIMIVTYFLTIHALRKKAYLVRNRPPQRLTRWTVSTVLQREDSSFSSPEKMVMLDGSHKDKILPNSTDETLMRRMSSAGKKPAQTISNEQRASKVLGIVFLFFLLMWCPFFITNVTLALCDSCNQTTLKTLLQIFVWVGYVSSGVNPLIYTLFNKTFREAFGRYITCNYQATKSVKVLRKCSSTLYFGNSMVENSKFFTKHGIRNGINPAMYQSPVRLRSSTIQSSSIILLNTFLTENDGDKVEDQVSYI
T3 sequence (P35367 whole entry): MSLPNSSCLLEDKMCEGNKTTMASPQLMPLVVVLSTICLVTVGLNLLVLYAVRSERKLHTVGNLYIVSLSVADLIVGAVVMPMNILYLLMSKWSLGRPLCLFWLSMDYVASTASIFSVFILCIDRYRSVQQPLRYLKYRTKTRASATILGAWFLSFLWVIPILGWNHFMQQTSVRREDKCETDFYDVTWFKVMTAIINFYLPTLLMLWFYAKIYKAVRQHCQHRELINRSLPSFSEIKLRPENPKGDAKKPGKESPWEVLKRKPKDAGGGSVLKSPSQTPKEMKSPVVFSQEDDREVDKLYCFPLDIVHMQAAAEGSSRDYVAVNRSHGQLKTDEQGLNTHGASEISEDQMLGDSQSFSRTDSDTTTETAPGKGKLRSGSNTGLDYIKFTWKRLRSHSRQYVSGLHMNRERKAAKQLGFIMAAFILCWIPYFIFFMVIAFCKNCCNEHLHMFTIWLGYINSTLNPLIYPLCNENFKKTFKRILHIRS
T4 sequence (P35367 whole entry): as above

Turning to `CCOc1ccc2c(c1)Sc1ccccc1C2=C1CCN(C)CC1` [1-methyl-4-(3-ethoxy-9H-thioxanthene-9-ylidene)-piperidine], the “antagonism at the 5-HT2B receptor” value in test [1] is recorded as “found to be an antagonist at the 5-HT2B receptor”. Moreover, the “affinity for the 5-HT2B receptor” value in test [2] and in test [5] was “found to have affinity for the 5-HT2B receptor” each time. Also, in test [3], the “antagonism at the human H1 receptor” value was “found to be an antagonist at the human H1 receptor”. Also, the “affinity for the human H1 receptor” value in test [4] was “found to have affinity for the human H1 receptor”.

Values taken from patent US20030022920A1, “1-Methyl-4- (3-ethoxy-9H-thioxanthene-9-ylidene) -piperidine and its use as 5-HT2B/H1 receptor antagonist” (priority 2001, published 2003).
